This passage reports melting point results from a melting point compilation (Tetko et al.; mined from patent text by program, amines drawn as free bases though some values may be those of a salt).

One may read the melting point as the temperature, or range, at which the solid turns liquid. `CCCOc1ccc(S(C)(=O)=O)cc1C(=O)Nc1c(C(N)=O)nn(CC2CC2)c1CC`: the melting point fell in the range of 185 to 186 °C.
`CCc1cc2c(c(CC)n1)CCC(=O)N2Cc1ccc(Oc2ccccc2CC(=O)O)cc1` returned a melting point of 122 to 124 °C.
Compound `O=Cc1cc(C=O)c(C#Cc2ccccc2)cc1C#Cc1ccccc1` registered a melting point of 170 to 172 °C.
In turn, `COc1ccc(CNc2cc(Cn3c(C(=O)c4cc(C)cc(C)c4)c(C(C)C)c(=O)[nH]c3=O)cc(Cl)n2)cc1` yielded a melting point of 211 to 212 °C.
`C[C@@H]1CC(=O)O[C@H](CCc2ccccc2)O1` yielded a melting point of 49.7 to 50.9 °C.
With `COc1ccc(CC(NC(=O)c2ccccc2)c2cccnc2)cc1OC` (configuration not stated), the melting point was in the range of 156 to 158 °C.
Under `C[C@]1(COc2ccc3cc(N4CCC(Oc5ccc(OC(F)(F)F)cc5)CC4)ccc3c2)Cn2cc([N+](=O)[O-])nc2O1` stands 205 to 208 °C.
Turning to `CC(=NO)c1ccc(NS(C)(=O)=O)c(Oc2ccc(F)cc2F)c1`, the melting point was 150 to 151 °C.
`Cc1nc2cccc(N)c2s1` gave a melting point of 100 to 101 °C.
Take `O=C(Nc1ccccc1)c1cccc(Oc2cccc(C(F)(F)F)c2)n1`: the melting point was in the range of 92 to 93 °C.
`COC(=O)c1nc2ccccc2o1` had a melting point of 101 to 102 °C.
`COc1cc(C)c(C(O)c2c(Cl)cncc2C(F)(F)F)c(OC)c1OC` (configuration not stated) registered a melting point of 102 to 105 °C.
As for `Cc1c2n(c(=O)c3cc(OC(=O)CN)cc(OC(=O)CN)c13)CCCC2`, the figure is 163 to 164 °C; as for `CNc1nc(SC)nc(N(C)C)c1[N+](=O)[O-]`, 128 to 132 °C.
Compound `O=c1c(CCc2nc3ccccc3s2)cc2cccnc2n1-c1cccc([N+](=O)[O-])c1` gave a melting point of 178 to 179 °C.
As for `CS(=O)(=O)Nc1ccccc1OCCCN1CCC(OC(c2ccccc2)c2ccsc2)CC1` (configuration not stated), the figure is 79.5 to 82 °C.
As for `CC1(C)CC(=O)c2c(nc(Cc3ccc(O)c(F)c3)c3[nH]c4ccccc4c23)C1`, the figure is 216 to 218 °C; as for `COc1c(C)cnc(CS(=O)c2nc3cc(C(F)(F)F)ccc3[nH]2)c1C` (configuration not stated), 163 °C; as for `Nc1scc2c(C(=O)O)nn(-c3ccc(Cl)cc3)c(=O)c12`, above 300 °C.
Take `CCc1c(C(=O)O)ccc(OC)c1C`: the melting point turned out to be 180 °C.
Under `O=C(C1=NN(c2ccc(Cl)cc2Cl)C(c2ccc(Cl)cc2)C1)N1CCCCC1` (configuration not stated) stands 105 to 110 °C; under `Cc1oc(-c2cccs2)nc1CC#N`, 185 °C; under `CCCCSc1cc(C(=O)O)cc(N)c1-c1ccccc1`, 143 to 144 °C.
Regarding `CN1CCN(c2c(F)c(F)c3c(=O)c(C(=O)O)cn(C4CC4)c3c2F)CC1`, the melting point is 245 °C.
As for `CCN1CCC(=O)N(c2cc(Cl)ccc2C)C1=S`, the figure is 142 to 145 °C; as for `CC(C)N(CCC(CC(=O)N1CCCCC1)(C(=O)N(C)C)c1ccccc1)C(C)C` (configuration not stated), 142 to 145 °C; as for `CCOC(=O)c1cc(=O)c2cc(O)ccc2s1`, 217 to 218 °C.
`O=C(O)[C@@H]1C[C@H](C2CCCCC2)CN1C(=O)CP(=O)(O)CCCCc1ccccc1` gave a melting point of 175 to 176 °C.
As for `CC(=O)NCC1CN(c2ccc(N3CC4CCCN(C(=O)COC(C)=O)C4C3)c(F)c2)C(=O)O1` (configuration not stated), the figure is 113 to 116 °C.
Regarding `COc1ccc(CNc2cc(C(c3cc(F)ccc3F)S(=O)(=O)c3ccc(F)cc3)c(Cl)cn2)cc1OC` (configuration not stated), the melting point was 158 to 159 °C.
As for `CCCNC(=O)[C@H](C)C[C@H](O)[C@H](CC1CCCCC1)NC(=O)[C@H](Cc1cscn1)NC(=O)[C@@H](CC(=O)N(C)Cc1ccccc1)Cc1ccccc1`, the figure is 115 to 118 °C; as for `COc1ccc(C2=NN(C3CCN(S(=O)(=O)c4ccccc4C#N)CC3)C(=O)CC2)cc1OC`, 158 to 160 °C; as for `CN(c1cc2c3c(c1)CCCC3CCC2)c1ncc(C(=O)O)cn1`, 255 to 256 °C.
For `CC(C)c1ccc(N(Cc2ccc(F)cc2)C(=O)Nc2c(C(C)C)cccc2C(C)C)cc1`, the melting point worked out at 80 °C.
In turn, `CC(C)Oc1cccc2c1C(=NNc1ccc(S(N)(=O)=O)cc1)C(=O)N2` displayed a melting point above 250 °C.
As for `NS(=O)(=O)c1cc(CO)cc(N2CCCC2)c1Oc1ccccc1`, the melting point was determined as 155 °C.
Under `CCOP(=O)(Cc1ccc(NC(=O)Cc2cnoc2-c2ccccc2)cc1)OCC` stands 132 to 133 °C; under `Cc1cc(C(=O)N2Cc3cccn3Cc3ccccc32)ccc1C1=CCCCC1C` (configuration not stated), 132 to 133 °C; under `COc1ccc(C(=O)NCCN(C)C)cc1`, 53 to 54 °C.
As for `CCOc1ccc(OC)cc1`, the melting point lay within 30 to 31 °C.
As to `C[C@H](Cn1ncnn1)n1cnc2cc3c(=O)n([C@H](C)Cn4ncnn4)cnc3cc2c1=O`, the melting point was in the range of 255 to 256 °C.
Consider `ClCCOc1ccc2c(c1)CCC2`, for which the melting point lay within 45 to 46 °C.
Under `CCCC(NS(=O)(=O)NC(=O)OCc1ccccc1)C(=O)OC` (configuration not stated) stands 76 to 78 °C.
`CCCc1nn(C)c2c(=O)n(CCCc3ccc(OC(C)(C)C(=O)O)cc3)c(C)nc12` displayed a melting point of 104 to 106 °C.
As to `CCOCc1nc2c(N)nc3cc(OCCCCCCNC(=O)NC(C)C)ccc3c2n1CC(C)(C)NC(=O)NC(C)C`, the melting point lay within 205 to 209 °C.
As to `CN(N=Cc1c[nH]c2ccccc12)c1cc(N2CCOCC2)nc(OCCc2ccccn2)n1`, the melting point fell in the range of 130 to 140 °C.
The compound `CCSN(C)C(=O)Nc1ccc(OC)c(Cl)c1` showed a melting point of 60 °C.
Under `CCCc1c(OCCCCCOc2ccccc2OCC(=O)O)ccc2c1OCCC2=O` stands 98 to 99 °C; under `CCN1CCN(Cc2ccc(-c3ccc4c(Nc5cc(OC)c(Cl)cc5Cl)c(C#N)cnc4c3)o2)CC1`, 157 to 160 °C; under `O=S(=O)(/C=C/c1ccccc1)Nc1ccc(Cl)cc1`, 107 to 109 °C.
Under `Cc1c(CCN(C)C)c2cc(S(=O)(=O)c3ccccc3)ccc2n1C` stands 170 to 172 °C; under `O=C(c1cc2ccnc(Cl)c2[nH]1)N1CCOCC1`, 170 to 171 °C; under `Fc1cccc(-c2nc(-c3ccccn3)no2)c1F`, 120 to 121 °C.
In turn, `CCCCCCC#CC(O)C1=Nc2ccc(F)cc2C(=O)C1C` (configuration not stated) had a melting point of 153 to 154 °C.
`CN(C)CCCCCCSc1ncccc1C(=O)c1cccs1` showed a melting point of 69 to 71 °C.
The compound `Cc1nc(N)nc(N)c1N1CCN(c2ccc(C(F)(F)F)cc2)CC1` had a melting point of 255 to 258 °C.
Take `CCN(CC)c1c([N+](=O)[O-])cc(C(F)(F)F)c(Cl)c1[N+](=O)[O-]`: the melting point was 35 to 36 °C.
Take `CS(=O)(=O)c1ccc(-n2nc(-c3ccc(O)cc3O)c3ccc(O)cc32)cc1`: the melting point was 94 to 96 °C.
`CC1(C)CC(c2ccccn2)c2cc(Cl)ccc2O1` (configuration not stated) registered a melting point of 124 to 125 °C.
In turn, `c1ccc(COc2ccc(-n3nnnc3C3CC3)cc2)cc1` registered a melting point of 118 °C.
For the compound `CCCCC(O)CNCCCCCCCCCCNCC(O)CCCC` (configuration not stated), the melting point is 127 to 137 °C.
Compound `COC(=O)c1ccc2[nH]cc(CCCCN3CCN(c4ccccc4OC)CC3)c2c1` displayed a melting point of 195 to 196 °C.
Take `CC(C)(C)c1ccc2[nH]c(C(=O)c3ccc(Cl)cc3)c(CC(=O)O)c2c1`: the melting point is 171 °C.
Consider `CCC(O)(c1ccc(F)cc1)c1ccc(OCCCN2CCN(Cc3ccccc3)CC2)cc1` (configuration not stated), for which the melting point lay within 119 to 121 °C.
Compound `O=C(CCC(F)(F)F)N[C@H]1CC[C@H](CCN2CCC(c3cccc4c3CCO4)CC2)CC1` came in with a melting point of 200 °C.
Under `O=C1CC(c2cccc(-c3ocnc3C(=O)NCCO)c2)=Nc2ccc(-n3cccc3)cc2N1` stands 228 to 230 °C; under `C=Cc1ccc([C@@H](C)N=Cc2cccc(C)n2)cc1`, 25 °C; under `CCCn1nnn(-c2ccc(N3CCN(c4ccc(OC)cc4)CC3)cc2)c1=O`, 190 °C.
As for `COc1cc(C(=O)c2ccc(OC)c(OC)c2OC)cc(OC)c1OC`, the melting point lay in the range of 125 to 126 °C.
As for `CC(=O)N1CCC(CCC(=O)c2ccc3c4c2CCCC4CN3C(C)=O)CC1` (configuration not stated), the figure is 130 to 132 °C; as for `CCN(CCC12CC3CC(CC(C3)C1)C2)C(=O)NCCCc1ccncc1`, 106 to 115 °C; as for `COc1cc2c(=O)n(Cc3ccc([N+](=O)[O-])cc3)c3cc(OC)c(OC)cc3c2cc1OC`, 199 to 200 °C.
On to `Clc1cccc(CNc2n[nH]c3ncnc(Nc4cccc(Cl)c4)c23)c1`, for which the melting point lay in the range of 158 to 163 °C.
Turning to `COc1ccc(-c2cccc3c(C(C)C)c(C)nn23)c(Cl)c1`, the melting point is 112 to 115 °C.
Under `Cc1c(Br)c2ccccn2c1C(=O)c1ccc(N)c(C(=O)O)c1` stands 230 °C; under `Oc1cccc(C2CCCN2Cc2cccnc2)c1` (configuration not stated), 129 to 131 °C.
Turning to `CCc1cc(C(=O)OC)c(C2=NC(=O)C(C)(C(C)C)N2)nc1COC` (configuration not stated), the melting point was in the range of 87 to 90 °C.
`c1nc(-c2ccc(CN3CCCCCC3)s2)n[nH]1` yielded a melting point of 129 to 130 °C.
`C=CCN1C(=O)NC(=C(C(=O)OCC)C(=O)OCC)C1=O` gave a melting point of 91 to 92 °C.
Regarding `O=CC(=Cc1ccccc1)c1ccc(F)cc1`, the melting point was 87 to 94 °C.
With `CC(C)Cn1c(N(C)C(=O)OC(C)(C)C)c(OCCCC(F)(F)F)c2cc(OCc3ccccc3)ccc2c1=O`, the melting point was 117 to 118 °C.
Take `CCOc1cc(Br)ccc1C=NNC(=N)NN=Cc1ccc(Br)cc1OCC`: the melting point was 195 to 197 °C.
`Cc1ccc(N(Cc2cccnc2)S(C)(=O)=O)c(C)c1` came in with a melting point of 62 to 65 °C.
With `CSC(C(N)=O)c1cccc(C(=O)c2ccccc2)c1N` (configuration not stated), the melting point lay within 153 to 155 °C.
Regarding `O=C(OC1C(OCCBr)OC(COCc2ccccc2)C(O)C1OC(=O)c1ccccc1)c1ccccc1` (configuration not stated), the melting point fell in the range of 78 to 80 °C.
Under `NS(=O)(=O)c1cccc(-c2cn(-c3nc(-c4ccc(Cl)cc4)cc(C(F)(F)F)n3)cn2)c1` stands 225 °C.
Compound `O=C(c1ncco1)c1ccc([N+](=O)[O-])cc1Cl` gave a melting point of 124 to 125 °C.
